TGI data for 13 compounds are collected here from PubChem BioAssay (NCI).

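Following 48 hours of exposure in 96-well plates, responses at five concentrations were used to interpolate endpoints linearly. TGI: concentration producing complete growth inhibition.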

Among the test systems are MDA-MB-231 breast; MALME-3M melanoma; 786-0 renal; SK-MEL-5 melanoma; IGROV1 ovarian; K-562 leukemia; SK-OV-3 ovarian; OVCAR-8 ovarian; HT29 colon; SR leukemia; UACC-62 melanoma; EKVX NSCLC; COLO 205 colon; OVCAR-4 ovarian; KM12 colon; NCI-H23 lung; UACC-257 melanoma; HCC-2998 colon.
Assay in all cases: DTP human tumour cell line panel, 48 h

Broadly, the TGI is the concentration giving total growth inhibition. A higher TGI goes with lower sensitivity of the cells. As to `Cc1ccc(S(=O)(=O)n2cc(/C=C/C#N)c(-c3cn(S(=O)(=O)c4ccc(C)cc4)cc3-c3cn(S(=O)(=O)c4ccc(C)cc4)cc3/C=C/C#N)c2)cc1`, the TGI in the assay with MDA-MB-231 breast, in the assay with MALME-3M melanoma, in the assay with 786-0 renal, in the assay with SK-MEL-5 melanoma, in the assay with IGROV1 ovarian and in the assay on K-562 leukemia was over 100 µM in each case. Besides, the TGI in the assay on SK-OV-3 ovarian, in the assay with OVCAR-8 ovarian, with HT29 colon, with SR leukemia, in the assay on UACC-62 melanoma and in the assay with EKVX NSCLC was over 100 µM each time. For the same compound, the TGI in the assay with COLO 205 colon, in the assay with OVCAR-4 ovarian, with KM12 colon, in the assay with NCI-H23 lung and in the assay with UACC-257 melanoma was over 100 µM throughout.

`CCOC(=O)c1nc2ccccc2nc1Oc1cc(OC)cc(OC)c1`: the TGI with MDA-MB-231 breast, in the assay with MALME-3M melanoma, with 786-0 renal, in the assay with SK-MEL-5 melanoma, in the assay on IGROV1 ovarian and in the assay on K-562 leukemia was over 100 µM throughout. For the same compound, the TGI with SK-OV-3 ovarian, with OVCAR-8 ovarian, in the assay with HT29 colon, with SR leukemia, in the assay with UACC-62 melanoma and with EKVX NSCLC was over 100 µM in each case. The TGI with COLO 205 colon, in the assay on OVCAR-4 ovarian, with KM12 colon and in the assay on UACC-257 melanoma was over 100 µM throughout.

As for `C[N+]1(C)C2CC(OC(=O)C(CO)c3ccccc3)CC1C1OC12` (stereo unspecified), the TGI in the assay on MDA-MB-231 breast, in the assay on MALME-3M melanoma, with 786-0 renal, with SK-MEL-5 melanoma, in the assay with IGROV1 ovarian and in the assay on K-562 leukemia was over 100 µM each time. For the same compound, the TGI with SK-OV-3 ovarian, with OVCAR-8 ovarian, with HT29 colon, in the assay with SR leukemia, in the assay with UACC-62 melanoma and in the assay on EKVX NSCLC was over 100 µM throughout. In addition, the TGI in the assay on COLO 205 colon, in the assay on OVCAR-4 ovarian, in the assay on KM12 colon, with NCI-H23 lung and with UACC-257 melanoma was over 100 µM throughout.

Turning to `NC(N)=N/N=C/c1c(-c2ccccc2[N+](=O)[O-])nc2sccn12`, the TGI with MDA-MB-231 breast is 33.4 µM; in the assay on MALME-3M melanoma it was 32.3 µM; in the assay on 786-0 renal it was 35.3 µM; in the assay with SK-MEL-5 melanoma, 30.8 µM; in the assay on IGROV1 ovarian, over 100 µM; in the assay with K-562 leukemia, 33.8 µM. Also, the TGI in the assay with SK-OV-3 ovarian is over 100 µM; in the assay on OVCAR-8 ovarian, over 100 µM; with HT29 colon, 81.6 µM; in the assay on SR leukemia, 35.1 µM; in the assay on UACC-62 melanoma it was 32.7 µM; in the assay with EKVX NSCLC, over 100 µM. Also, the TGI in the assay with COLO 205 colon was 29.4 µM; in the assay with OVCAR-4 ovarian, over 100 µM; in the assay with KM12 colon it was 46.9 µM; in the assay with NCI-H23 lung, 86.5 µM; in the assay on UACC-257 melanoma, 35.6 µM.

For `O=C1CSCC(=O)Nc2ccccc2N1`, the TGI with MDA-MB-231 breast, with MALME-3M melanoma, with 786-0 renal, in the assay with SK-MEL-5 melanoma, in the assay on IGROV1 ovarian and in the assay with K-562 leukemia was over 100 µM throughout. Moreover, the TGI in the assay with SK-OV-3 ovarian, in the assay on OVCAR-8 ovarian, with HT29 colon, with SR leukemia, in the assay with UACC-62 melanoma and in the assay with EKVX NSCLC was over 100 µM each time. The TGI with COLO 205 colon, in the assay on OVCAR-4 ovarian, with KM12 colon, in the assay with NCI-H23 lung and in the assay with UACC-257 melanoma was over 100 µM each time.

In the case of `COc1ccc2c(O)c(Oc3ccc(Cl)cc3)c(=O)oc2c1`, the TGI in the assay on MDA-MB-231 breast, in the assay on MALME-3M melanoma, with 786-0 renal, in the assay with SK-MEL-5 melanoma, with IGROV1 ovarian and in the assay on K-562 leukemia was over 100 µM throughout. The total growth inhibition concentration (TGI) in the assay with OVCAR-8 ovarian, with HT29 colon, with SR leukemia, in the assay with EKVX NSCLC, with HCC-2998 colon and in the assay on OVCAR-4 ovarian was over 100 µM throughout. For the same compound, the TGI in the assay with KM12 colon, in the assay with NCI-H23 lung and with UACC-257 melanoma was over 100 µM each time.

Regarding `O=C1c2ccccc2-c2nnc3c(c21)Cc1ccccc1C3`, the TGI in the assay on MDA-MB-231 breast, in the assay with MALME-3M melanoma, in the assay with 786-0 renal, in the assay on SK-MEL-5 melanoma, in the assay with IGROV1 ovarian and in the assay with K-562 leukemia was over 10 µM in each case. In addition, the total growth inhibition concentration (TGI) in the assay on SK-OV-3 ovarian, in the assay on OVCAR-8 ovarian, in the assay on HT29 colon, in the assay with SR leukemia, in the assay with UACC-62 melanoma and with EKVX NSCLC was over 10 µM in each case. Also, the TGI in the assay with HCC-2998 colon, with COLO 205 colon, with OVCAR-4 ovarian, in the assay on KM12 colon and in the assay with NCI-H23 lung was over 10 µM in each case.

On to `O=C1C=CC2(C=C1)O[C@H](COCc1ccccc1)[C@@H](COCc1ccccc1)O2`, for which the TGI in the assay with MDA-MB-231 breast was 12.8 µM; in the assay on MALME-3M melanoma it was 6.48 µM; in the assay with 786-0 renal, 2.22 µM; with SK-MEL-5 melanoma, 3.22 µM; in the assay with IGROV1 ovarian, 3.03 µM; with K-562 leukemia, over 100 µM. For the same compound, the TGI turned out to be 29 µM with SK-OV-3 ovarian; 1.28 µM in the assay with OVCAR-8 ovarian; 5.88 µM with HT29 colon; 0.849 µM in the assay on SR leukemia; 3.99 µM in the assay with UACC-62 melanoma; 3.66 µM in the assay on EKVX NSCLC. Further, the TGI in the assay on COLO 205 colon came to 3.35 µM; with OVCAR-4 ovarian, 4.66 µM; in the assay with KM12 colon, 14.3 µM; in the assay on NCI-H23 lung, 4.29 µM; with UACC-257 melanoma, 3.56 µM.

Consider `CC(C)OC(=O)NCCn1cc(-c2ccccc2)nn1`, for which the TGI in the assay with MDA-MB-231 breast, with MALME-3M melanoma, in the assay on 786-0 renal, in the assay on SK-MEL-5 melanoma, in the assay with K-562 leukemia and in the assay with OVCAR-8 ovarian was over 100 µM each time. Moreover, the TGI with HT29 colon, with SR leukemia, with EKVX NSCLC, in the assay with HCC-2998 colon, with COLO 205 colon and in the assay on OVCAR-4 ovarian was over 100 µM throughout. Moreover, the TGI in the assay on KM12 colon, in the assay on NCI-H23 lung and in the assay on UACC-257 melanoma was over 100 µM each time.

With `O=C(c1ccc2ccccc2c1)C1(I)S(=O)(=O)OCCOS1(=O)=O`, the TGI with MDA-MB-231 breast, in the assay with MALME-3M melanoma, with 786-0 renal, in the assay on SK-MEL-5 melanoma, in the assay on K-562 leukemia and in the assay on OVCAR-8 ovarian was over 100 µM throughout. In addition, the TGI in the assay with HT29 colon, in the assay with SR leukemia, in the assay on EKVX NSCLC, with HCC-2998 colon, with COLO 205 colon and in the assay on OVCAR-4 ovarian was over 100 µM in each case. For the same compound, the TGI in the assay with KM12 colon and with NCI-H23 lung was over 100 µM throughout.

In the case of `COc1ccc(N2C(=O)c3cc([N+](=O)[O-])cnc3S2(=O)=O)cc1`, the TGI with MDA-MB-231 breast, in the assay with MALME-3M melanoma, in the assay with 786-0 renal, in the assay on IGROV1 ovarian, in the assay on K-562 leukemia and in the assay with SK-OV-3 ovarian was over 100 µM throughout. For the same compound, the TGI in the assay with OVCAR-8 ovarian, in the assay on HT29 colon, in the assay with SR leukemia, in the assay with UACC-62 melanoma, in the assay on EKVX NSCLC and with HCC-2998 colon was over 100 µM each time. Further, the TGI in the assay with COLO 205 colon, with OVCAR-4 ovarian, in the assay on KM12 colon and in the assay on NCI-H23 lung was over 100 µM each time.

Consider `CC(=O)N1C=Cc2c(c(C)c3c([nH]c4ccccc43)c2C)C1`, for which the TGI with MDA-MB-231 breast is 9.34 µM; with MALME-3M melanoma it was 23.1 µM; in the assay with 786-0 renal, 6.73 µM; in the assay with SK-MEL-5 melanoma, 33.5 µM; in the assay on IGROV1 ovarian, 17.9 µM; in the assay on K-562 leukemia it was over 100 µM. Further, the TGI with SK-OV-3 ovarian is 27 µM; in the assay with OVCAR-8 ovarian, 29.1 µM; with HT29 colon it was 18 µM; in the assay with SR leukemia, over 100 µM; in the assay on EKVX NSCLC, 8.13 µM; in the assay on COLO 205 colon it was 19.1 µM. The TGI with OVCAR-4 ovarian came to 5.17 µM; with KM12 colon it was 12 µM; in the assay with NCI-H23 lung, 20.4 µM; in the assay with UACC-257 melanoma it was 29.6 µM.

Consider `COc1cc2nc(-c3cccs3)nc(Nc3cccc([N+](=O)[O-])c3)c2cc1OC`, for which the TGI was 35.9 µM in the assay with MDA-MB-231 breast; 35.2 µM with MALME-3M melanoma; 40.9 µM with 786-0 renal; over 100 µM in the assay on SK-MEL-5 melanoma; 32.2 µM with IGROV1 ovarian; over 100 µM with K-562 leukemia. For the same compound, the TGI is 41.5 µM with SK-OV-3 ovarian; 56.8 µM with OVCAR-8 ovarian; over 100 µM in the assay on HT29 colon; 34.2 µM in the assay with SR leukemia; 31.1 µM with UACC-62 melanoma; 33.1 µM in the assay on EKVX NSCLC. The TGI with COLO 205 colon is 54.1 µM; in the assay with OVCAR-4 ovarian, over 100 µM; with KM12 colon, 40.6 µM; in the assay on NCI-H23 lung it was 28.9 µM; with UACC-257 melanoma, 44.2 µM.
